# Experimental data published in ChEMBL document CHEMBL1138244, “Three-dimensional quantitative structure-activity relationships and activity predictions of human TRPV1 channel antagonists: comparative molecular field analysis and comparative molecular similarity index analysis of cinnamides” (J Med Chem, 2007).
# Test: Inhibition of rat human chimera TRPV1 channel expressed in CHO cells
# Type: cell-based
IC50,pIC50,SMILES
226 nM,6.65,CC(C)(C)c1ccc(CCC(=O)Nc2ccc3c(c2)OCCO3)cc1
392 nM,6.41,CC(C)(C)c1ccc(/C=C/C(=S)Nc2ccc3c(c2)OCCO3)cc1
404 nM,6.39,O=C(/C=C/c1cccc(Br)c1)Nc1ccc2c(c1)OCCO2
548 nM,6.26,CC(C)(C)c1cccc(/C=C/C(=O)Nc2ccc3c(c2)OCCO3)c1
23 nM,7.59,CC(C)(C)c1ccc(/C=C/C(=O)Nc2ccc3c(c2)OCCO3)cc1 (stereo in doubt; 1)
2330 nM,5.63,CC(=O)Oc1ccc(/C=C/C(=O)Nc2ccc3c(c2)OCCO3)cc1
> 40000 nM,4.4,CC(=O)Nc1ccc(/C=C/C(=O)Nc2ccc3c(c2)OCCO3)cc1
> 40000 nM,4.4,O=C(/C=C/c1ccc(O)cc1)Nc1ccc2c(c1)OCCO2
550 nM,6.26,CC(C)(C)c1ccc(/C=C/C(=O)Nc2ccc3c(c2)OCCO3)cc1.Cl
216 nM,6.67,O=C(/C=C/c1ccc(Cl)cc1)Nc1ccc2c(c1)OCCO2
98 nM,7.01,CC(C)c1ccc(/C=C/C(=O)Nc2ccc3c(c2)OCCO3)cc1
129 nM,6.89,O=C(/C=C/c1ccc(C(F)(F)F)c(F)c1)Nc1ccc2c(c1)OCCO2
120 nM,6.92,CCC/C(=C\C(=O)Nc1ccc2c(c1)OCCO2)c1ccc(C(C)(C)C)cc1
1870 nM,5.73,COc1ccc(/C=C/C(=O)Nc2ccc3c(c2)OCCO3)cc1
1060 nM,5.97,CC(C)(C)c1ccc(/C=C/C(=O)Nc2ccc3c(c2)OCCO3)nc1
509 nM,6.29,O=C(/C=C/c1ccc(I)cc1)Nc1ccc2c(c1)OCCO2
136 nM,6.87,CC(C)(C)c1ccc(/C=C/C(=O)Nc2ccc3c(c2)OCCO3)cc1 (stereo in doubt; 91)
455 nM,6.34,Cc1ccc(/C=C/C(=O)Nc2ccc3c(c2)OCCO3)cc1C
449 nM,6.35,O=C(/C=C/c1ccc(Cl)c(Cl)c1)Nc1ccc2c(c1)OCCO2
5100 nM,5.29,O=C(/C=C/c1ccccc1)Nc1ccc2c(c1)OCCO2
1110 nM,5.95,Cc1nc(C(F)(F)F)ccc1/C=C/C(=O)Nc1ccc2c(c1)OCCO2
3520 nM,5.45,C=Cc1ccc(/C=C/C(=O)Nc2ccc3c(c2)OCCO3)cc1
339 nM,6.47,O=C(/C=C/c1ccc(Br)cc1)Nc1ccc2c(c1)OCCO2
3600 nM,5.44,O=C(/C=C/c1ccc(F)cc1F)Nc1ccc2c(c1)OCCO2
312 nM,6.51,CCCCc1ccc(/C=C/C(=O)Nc2ccc3c(c2)OCCO3)cc1
1620 nM,6.79,O=C(/C=C/c1cccc(OC(F)(F)F)c1)Nc1ccc2c(c1)OCCO2
164 nM,6.78,C/C(=C\c1ccc(C(C)(C)C)cc1)C(=O)Nc1ccc2c(c1)OCCO2

# The next lines start with the compound.
SMILES,IC50,pIC50
CC(C)(C)c1ccc(/C(=C/C(=O)Nc2ccc3c(c2)OCCO3)Cc2ccccc2)cc1,21 nM,7.69
CC(C)(C)c1ccc(/C=C/C(=O)Nc2ccc3c(c2)NCCC3)cc1,55 nM,–
CC(C)(C)c1ccc(/C=C/C(=O)Nc2ccc3c(c2)OC[C@@H](COCC2CC2)O3)cc1,329 nM,6.48
CC(C)(C)c1ccc(/C(=C/C(=O)Nc2ccc3c(c2)OCCO3)c2ccncc2)cc1,119 nM,6.92
CCOC(=O)CC/C(=C\C(=O)Nc1ccc2c(c1)OCCO2)c1ccc(C(C)(C)C)cc1,56 nM,7.25
CN(C(=O)/C=C/c1ccc(C(C)(C)C)cc1)c1ccc2c(c1)OCCO2,19400 nM,4.71
CC(C)(C)c1ccc(/C=C/C(=O)Nc2cccc(OCCO)c2)cc1,859 nM,6.07
COc1ccccc1/C(=C/C(=O)Nc1ccc2c(c1)OCCO2)c1ccc(C(C)(C)C)cc1,153 nM,6.82
COc1cc(/C=C/C(=O)Nc2ccc3c(c2)OCCO3)cc(OC)c1OC,> 40000 nM,4.4
CC(C)(C)c1ccc(/C=C/C(=O)Nc2ccc3cccnc3c2)cc1,3 nM,–
O=C(/C=C/c1ccc(C(F)(F)F)cc1Br)Nc1ccc2c(c1)OCCO2,453 nM,6.34
Cc1ccc(C(=CC(=O)Nc2ccc3c(c2)OCCO3)c2ccc(C)cc2)cc1,247 nM,6.61
C/C(=C\C(=O)Nc1ccc2c(c1)OCCO2)c1ccc(C(C)(C)C)cc1,82 nM,7.09
CC(C)(C)c1ccc(C(=CC(=O)Nc2ccc3c(c2)OCCO3)c2ccc(C(C)(C)C)cc2)cc1,2510 nM,5.6
COc1ccc(NC(=O)/C=C/c2ccc(C(C)(C)C)cc2)cc1,166 nM,6.78
CC(C)(C)c1ccc(/C=C/C(=O)Oc2ccc3c(c2)OCCO3)cc1,868 nM,6.06
CC(C)(C)c1ccc(/C(=C/C(=O)Nc2ccc3c(c2)OCCO3)c2ccccc2)cc1,48 nM,7.32

SMILES,IC50,pIC50
CC(C)(C)c1ccc(/C=C/C(=O)Nc2ccc3c(c2)OCCO3)c(C2CCCC2)c1,6 nM,8.21
CC(C)(C)c1ccc(/C=C/C(=O)Nc2ccc3ccc(=O)[nH]c3c2)cc1,4 nM,–
COc1ccc(/C(=C/C(=O)Nc2ccc3c(c2)OCCO3)c2ccc(C(C)(C)C)cc2)cc1,46 nM,7.34
CC(C)(C)c1ccc(/C=C/C(=O)Nc2ccc3c(c2)CCCC3)cc1,102 nM,–
CC(C)(C)c1ccc(/C(=C\C(=O)Nc2ccc3c(c2)OCCO3)c2cccc(N)c2)cc1,331 nM,6.48
Cc1ccc(/C(=C/C(=O)Nc2ccc3c(c2)OCCO3)c2ccc(C(C)(C)C)cc2)cc1,93 nM,7.03
O=C(/C=C/c1ccc(Cl)cc1)Nc1cccc(Cl)c1,993 nM,6
CC(C)(C)c1ccc(/C=C/C(=O)Nc2ccc3c(c2)OCCN3)cc1,26 nM,–
COc1cccc(NC(=O)/C=C/c2ccc(C(C)(C)C)cc2)c1,57 nM,7.24
CC(C)(C)c1ccc(/C=C/C(=O)Nc2ccc3c(c2)OC[C@@H](CNCO)O3)cc1,690 nM,6.16
CC(C)(C)c1ccc(/C(=C\C(=O)Nc2ccc3c(c2)OCCO3)c2ccc(F)cc2)cc1,39 nM,7.41
CC(C)C/C(=C\C(=O)Nc1ccc2c(c1)OCCO2)c1ccc(C(C)(C)C)cc1,41 nM,7.38
CC(C)(C)c1ccc(C(=O)CC(=O)Nc2ccc3c(c2)OCCO3)cc1,582 nM,6.23
Cc1cccc(/C(=C/C(=O)Nc2ccc3c(c2)OCCO3)c2ccc(C(C)(C)C)cc2)c1,59 nM,7.23
O=C(/C=C/c1ccc(C(F)(F)F)cc1C(F)(F)F)Nc1ccc2c(c1)OCCO2,451 nM,6.35
CC(C)(C)c1ccc(/C(=C\C(=O)Nc2ccc3c(c2)OCCO3)c2ccc(Cl)cc2)cc1,42 nM,7.37
